The values that follow come from patent US20040053928A1, “Quinoline derivatives as antibacterials” (priority 2000, published 2004).

Structures can show the parent of a compound that is named as a salt.

The nature of this assay: MIC of test compounds against various organisms. Format: cell-based. The following applies: against one or more of the above range of gram positive and gram negative bacteria. As for the experimental part:
The MIC (μg/ml) of test compounds against various organisms was determined:
S. aureus Oxford, S. aureus WCUH29, S. pneumoniae 1629, S. pneumoniae N1387, S. pneumoniae ERY 2, E. faecalis 1, E. faecalis 7, H. influenzae Q1, H. influenzae NEMC1, M. catarrhalis 1502, E. coil 7623, E.coli 120.
For the compound `CCOC(=O)C1CN(C[C@H](O)c2ccnc3ccc(OC)cc23)CCC1NCC(=O)Nc1ccccc1` (mixture of isomers) [Example 2, cis-2-{1-[2-(R)-Hydroxy-2-(6-methoxy-quinolin-4-yl)-ethyl]-3-(R/S)-ethoxycarbonyl-piperidin-4-(S/R)-ylamino}-N-phenyl-acetamide dioxalate], the MIC is no more than 0.25 µg/mL.

For the compound `COc1ccc2nccc([C@@H](O)CN3CCC(NCC(=O)Nc4ccccc4)C(CO)C3)c2c1` (mixture of isomers) [Example 3, cis-2-{1-[2-(R)-Hydrxy-2-(6-methoxy-quinolin-4-yl)-ethyl]-3-(R/S)-hydroxymethyl-piperidin-4-(S/R)-ylamino}-N-phenyl-acetamide dioxalate], the MIC was no more than 2 µg/mL.

For `COc1ccc2nccc([C@@H](O)CN3CCC(NCC(=O)Nc4ccccc4)C(C(N)=O)C3)c2c1` (mixture of isomers) [Example 4, cis-2-{1-[2-(R)-Hydroxy-2-(6-methoxy-quinolin-4-yl)-ethyl]-3-(R/S)-aminocarbonyl-piperidin-4-(S/R)-ylamino}-N-phenyl-acetamide dioxalate], the MIC was no more than 2 µg/mL. As for `CCOC(=O)C1CN(C(=O)Nc2ccnc3ccc(OC)cc23)CCC1NCC(=O)Nc1ccccc1` (racemic) [Example 5, cis-3-(R/S)-Ethoxycarbonyl-4-(S/R)-(phenylcarbamoylmethyl-amino)-piperidine-1-carboxylic acid (6methoxy-quinolin-4-yl)-amide oxalate], the figure is no more than 32 µg/mL; as for `COc1ccc2nccc(NC(=O)N3CCC(NCC(=O)Nc4ccccc4)C(CO)C3)c2c1` (racemic) [Example 6, cis-3-(R/S)-Hydroxymethyl-4-(S/R)-(phenylcarbamoylmethyl-amino)-piperidine-1-carboxylic acid (6-methoxy-quinolin-4-yl)-amide oxalate], no more than 32 µg/mL. As for `COc1ccc2nccc(NC(=O)N3CCC(NCCCc4ccco4)C(CO)C3)c2c1` (racemic) [Example 53, cis-4-(S/R)-[3-(2-Furyl)-propyl]amino-3-(R/S)-hydroxymethyl-[6-methoxyquinolin-4-yl)]aminocarbonylpiperidine oxalate], the figure is no more than 2 µg/mL. Turning to `COc1ccc2nccc([C@@H](O)CN3CCC(NCC(=O)Nc4ccccc4)CC3)c2c1` [Example 1, 2-{1-[(R)-2-Hydroxy-2-(6-methoxy-quinoin-4-yl)-ethyl]-piperidin-4-ylamino}-N-phenyl-acetamide dioxalate], the MIC is no more than 0.25 µg/mL. As for `COc1ccc2nccc([C@@H](O)CN3CCC(N(C)CC(=O)Nc4ccccc4)CC3)c2c1.O=C(O)C(=O)O.O=C(O)C(=O)O` [Example 12, 2-{1-[(R)-2-Hydroxy-2-(6-methoxy-quinolin-4-yl)-ethyl]-piperidin-4-yl-N-methylamino}-N-phenyl-acetamide dioxalate], the figure is no more than 32 µg/mL; as for `COc1ccc2nccc([C@@H](O)CN3CCC(NCC(=O)Nc4ccccn4)CC3)c2c1` [Example 13, 2-{1-[(R)-2-Hydroxy-2-(6-methoxy-quinolin-4-yl)-ethyl]-piperidin-4-ylamino}-N-pyridin-2-yl-acetamide dioxalate], no more than 0.25 µg/mL; as for `COc1ccc2nccc([C@@H](O)CN3CCC(NCC(=O)Nc4ccc(F)c(F)c4)CC3)c2c1` [Example 17, N-(3,4-Difluoro-phenyl)-2-{1-[(R)-2-hydroxy-2-(6-methoxy-quinolin-4-yl-ethyl]-piperidin-4-ylamino)-acetamide dioxalate], no more than 0.25 µg/mL. As for `COc1ccc2nccc([C@@H](O)CN3CCC(NCC(=O)Nc4ccc(Cl)c(Cl)c4)CC3)c2c1` [Example 18, N-(3,4-Dichloro-phenyl)-2-{1-[(R)-2-hydroxy-2-(6-methoxy-quinolin-4-yl-ethyl]-piperidin-4-ylamino)-acetamide dioxalate], the figure is no more than 2 µg/mL; as for `COc1ccc2nccc([C@@H](O)CN3CCC(NCC(=O)Nc4ccccc4C#N)CC3)c2c1` [Example 19, N-(2Cyano-phenyl)-2-{1-[(R)-2-hydroxy-2-(6-methoxy-quinolin-4-yl-ethyl]-piperidin-4-ylamino)-acetamide dioxalate], no more than 0.25 µg/mL. As for `COc1ccc2nccc([C@@H](O)CN3CCC(NCC(=O)Nc4ccccc4[N+](=O)[O-])CC3)c2c1` [Example 20, 2-{1-[(R)-2-Hydroxy-2-(6-methoxy-quinolin-4-yl-ethyl]-piperidin-4-ylamino}-N-(2nitro-phenyl)-acetamide dioxalate], the figure is no more than 0.25 µg/mL; as for `COc1ccc2nccc([C@@H](O)CN3CCC(NCC(=O)Nc4cc(F)cc(F)c4)CC3)c2c1` [Example 29, N-(3,5-Difluoro-phenyl)-2-{1-[(R)-2-hydroxy-2-(6-methoxy-quinolin-4-yl)-ethyl]-piperidin-4-ylamino)-acetamide dioxalate], no more than 0.25 µg/mL.

`COc1ccc2nccc([C@@H](O)CN3CCC(NCC(=O)Nc4cccc(C#N)c4)CC3)c2c1` [Example 34, N-[3-Cyano-phenyl]-2-{1-[(R)-2-hydroxy-2-(6-methoxy-quinolin-4-yl)-ethyl]-piperidin-4-ylamino)-acetamide dioxalate]: the minimum inhibitory concentration (MIC) is no more than 32 µg/mL. As for `COc1ccc2nccc([C@@H](O)CN3CCC(NCC(=O)Nc4ccc(F)c([N+](=O)[O-])c4)CC3)c2c1` [Example 36, N-[4-Fluoro-3-nitro-phenyl]-2-{1-[(R)-2-hydroxy-2-(6-methoxyquinolin-4-ethyl]-piperidin-4-ylamino)-acetamide dioxalate], the figure is no more than 32 µg/mL. As for `COC(=O)C1(NCC(=O)Nc2ccccc2)CCN(C[C@H](O)c2ccnc3ccc(OC)cc23)CC1.O=C(O)C(=O)O.O=C(O)C(=O)O` [Example 37, 2-{1-[2-(R)-Hydroxy-2-(6-methoxy-quinolin-4-yl)-ethyl]-4-methoxycarbonyl-piperidin-4-ylamino)-N-phenyl-acetamide dioxalate], the figure is no more than 32 µg/mL; as for `COc1ccc2nccc([C@@H](O)CN3CCC(CO)(NCC(=O)Nc4ccccc4)CC3)c2c1` [Example 38, 2-{1-[2-(R)-Hydroxy-2-(6-methoxy-quinolin-4-yl)-ethyl]-4-hydroxymethyl-piperidin-4-ylamino}-N-phenyl-acetamide dioxalate], no more than 2 µg/mL; as for `COc1ccc2nccc([C@@H](O)CN3CCC(NCC(=O)Nc4ccc(F)cc4)CC3)c2c1` [Example 41, N-(4-Fluoro-phenyl)-2-{1-[(R)-2-hydroxy-2-(6-methoxy-quinlin-4-yl)-ethyl]-piperidin-4-ylamino}-acetamide dioxalate], no more than 2 µg/mL.

For `COc1ccc2nccc(CCN3CCC(NCC(=O)Nc4ccc(F)cc4)CC3)c2c1` [Example 42, N-(4-Fluoro-phenyl)-2-{1-[2-(6-methoxy-quinolin-4-yl)-ethyl]-piperidin-4-ylamino}-acetamide dioxalate], the MIC is no more than 2 µg/mL.

Regarding `COc1ccc2nccc([C@@H](O)CN3CCC(NC/C=C/c4ccccc4[N+](=O)[O-])CC3)c2c1` [Example 54, 4-[trans-1-(2-Nitrophenyl)-3-propeny]amino-1-[2-(R)-hydroxy-2-(6-methoxyquinolin-4-yl)]ethylpiperidine dioxalate], the minimum inhibitory concentration (MIC) was no more than 0.25 µg/mL. As for `COc1ccc2nccc([C@@H](O)CN3CCC(NC(=O)/C=C/c4ccco4)CC3)c2c1` [Example 72, (E)-3-Furan-2-yl-N-{1-[(R)-2-hydroxy-2-(6-methoxyquinolin-4-yl)-ethyl]-piperidin-4-yl}-acrylamide oxalate], the figure is no more than 2 µg/mL; as for `COc1ccc2nccc([C@@H](O)CN3CCC(NC/C=C/c4nccs4)CC3)c2n1` [Example 73, 4-[trans-1-(2-Thiazolyl)-3-propenyl]amino-1-[2-(R)-hydroxy-2-(6-methoxy-[1,5]-naphthyridin-4-yl)]ethylpiperidine dimethanesulphonate], no more than 0.25 µg/mL. Under `COc1cc(F)c2nccc([C@@H](O)CN3CCC(NCCOc4ccccn4)CC3)c2c1` [Example 74, 4-[2-(Pyridin-2-yloxy)-ethylamino]-1-[2-(R)-hydroxy-2-(8-fluoro-6-methoxyquinolin-4-yl)]ethylpiperidine dioxalate] stands no more than 0.25 µg/mL; under `COc1ccc2nccc([C@@H](O)CN3CCC(NCCCn4cc(F)c(=O)[nH]c4=O)CC3)c2c1` [Example 75, 5-Fluoro-1-(3-{1-[(R)-2-hydroxy-2-(6-methoxy-quinolin-4-yl)-ethyl]piperidin-4-ylamino}-propyl)-1H-pyrimidine-2,4-dione dioxolate], no more than 32 µg/mL.
